# Measurements from patent publication US9296687B2, “Modulators of HSP70/DnaK function and methods of use thereof” (The Trustees of the University of Pennsylvania, priority 2008, dated 2016).
# What was measured:
# HSP70 = HSP70 (Homo sapiens, UniProt P0DMV8); assay: Capture of HA-tagged HSP70 constructs from transfected H1299 cells with biotinylated compound; assay type: binding; parameters: expressed in transfected cells; host or cells: H1299; conditions: biotinylated compound, 6 hours
# Procedure: FIG. 1. PES Binds to HSP70. (A) Whole cell extracts (WCE) prepared from A875 and BCL-xL over-expressing U2OS human osteosarcoma cells (BX-U2OS) cells, treated with Biotin or Biotin-PES (B-PES), were captured using NeutrAvidin agarose resins. HSP70-family proteins were identified as the major product in the excised band of ˜70 kDa shown in both Coomassie gels. (B and C) WCE were prepared from the cell lines indicated following 24 h treatment with 20 μM Biotin or B-PES and examined for the expression of proteins indicated (left panel of B and C) by western blot analysis; note that different exposure times were used to visualize these proteins. […] (D) In vitro evidence for an interaction between B-PES and HSP70. Full-length human HSP70 and human HSP90 proteins were in vitro translated in the presence of ^35S-methionine, mixed with B-PES coupled to NeutrAvidin resins, and eluted using 100 mM DTT. The resulting DTT eluates were separated by polyacrylamide gel electrophoresis (SDS-PAGE) and visualized by autoradiography. (E) B-PES interacts with the C-terminal region of HSP70. H1299 cells were transfected with the indicated hemagglutinin (HA)-tagged constructs and exposed to B-PES. B-PES containing complexes were captured by NeutrAvidin Resins, eluted following 100 mM DTT treatment, and immunoblotted with anti-HA antibody following SDS-PAGE. (F) Non-transformed human IMR90 fibroblasts or H1299 lung carcinoma cells were treated with the indicated concentrations of PES for 24 h and cell viability was determined by MTT assays. (G) WCE were prepared from the cell lines indicated following 5 hr treatment with 20 μM PES or B-PES and examined for the expression of proteins indicated (left panel) by western blot analysis; note that different exposure times were used to visualize these proteins. B-PES-containing complexes were captured by NeutrAvidin resins, eluted following 50 mM DTT treatment, and immunoblotted using the indicated antibodies.
# The free amide group of PES-Cl was biotinylated and added to HA-tagged HSP70-transfected H1299 cells. The treatment of the cells occurred for 6 hours. The complexes were pulled down with NeutrAvidin beads, eluted with 100 mM DTT treatments, separated with SDS-PAGE and detected with anti-HA antibody (Millipore) by Western blot.
# Docking studies were performed using the C-terminal HSP70 crystal structure (FIG. 32) to elucidate the PES binding site in silico (FIG. 33). Blind docking methods were used in the program AutoDock to locate potential PES binding sites. These methods use a course grid docking approach, encompassing the entire protein, to identify favorable binding sites using a known binding ligand, and are examined by hand to support the AutoDock data. […]
# EGFR, HER2/ErbB2, AKT = assay: Western blot of HSP70/HSP90 client proteins in detergent-soluble and detergent-insoluble fractions; assay type: cell-based, human
# Procedure: FIG. 17. PES impairs the proteasome system. (A) Cell-based 20S proteasome activity assay of H1299 or A875 human tumor cells treated with DMSO, 20 μM PES, 100 nM Velcade (proteasome inhibitor), 1 μM 17-AAG (HSP90 inhibitor), 5 μM CQ (lysosome inhibitor), or 20S proteasome inhibitor epigallocatechin gallate (EGCG). Each graphical representation indicates the mean±SD of at least three independent cultures relative to control (DMSO-treated) cells. (B) Cell extracts from SKBR3 human breast carcinoma cells, treated either with 20 μM PES or 1 μM 17-AAG for 24 h, were immunoprecipitated (IP) using anti-HSP70 or anti-HSP90 antibody. […] MTT assays of MCF7 human breast carcinoma cells pretreated with DMSO, or 5 μM PES for 1 h, followed by the addition of indicated amount of 17-AAG for 47 h. The results represent the mean±SD of at least three independent analysis of cultures relative to control (DMSO-treated) cells. (D and E) H1299 cells (D) or SKBR3 cells (E) were treated with DMSO, 20 μM PES, 17-AAG, or 17-AAG plus bortezomib (Velcade) as indicated; harvested in 1% NP-40 containing lysis buffer; fractionated into detergent-soluble and detergent-insoluble preparations; and assayed by western blot.
# FIG. 18. Accumulation of HSP90 client proteins in the protein detergent-insoluble fraction following PES. (A) SKOV3 cells were treated with DMSO, 10 μM PES, or 20 μM PES for 24 h. Note the marked accumulation of EGFR, HER2/ErbB2, and AKT in the detergent-insoluble fraction following 20 μM PES treatment. (B and C) SKOV3 (B) or SKBR3 (C) cells were treated with DMSO, 20 μM PES, or 1 μM 17-AAG, as indicated, for 24 h. Cells were harvested in 1% NP-40 containing lysis buffer, fractionated into detergent-soluble and detergent-insoluble preparations, and assayed by western blot for the proteins indicated.
# The HSP70 and HSC70 proteins bind to exposed hydrophobic regions of nascent-, translocating-, misfolded- or partially unfolded-proteins. These ATP-dependent molecular chaperones act in multi-protein complexes in conjunction with one or more regulatory co-chaperones to carry out multiple cellular functions. […] This is illustrated for H1299 cells treated with 10 or 20 μM PES for 24 h. […] This correlates with a reduced abundance of complexes containing HSP70, or HSC70, together with client proteins or co-chaperones (FIGS. 19A and 19B). […] However, since HSP70/HSC70 act as critical co-chaperones for HSP90, for example in client protein recruitment, PES-mediated alteration in the function of the 70-kDa molecular chaperones could be reflected in an altered behavior or expression of many client proteins. To test this idea, we examined the expression of a few well-established HSP90 client proteins, including the transmembrane tyrosine kinase receptors EGFR and HER2/ERBB2, and the downstream signaling factor AKT. These proteins are overexpressed, or aberrantly expressed, in a variety of human tumors, and have been implicated in cancer etiology and pathology. As a control for these studies, we compared the effects of PES to that of the well-established HSP90 inhibitor, 17-allylamino-17-demethoxygeldanamycin (17-AAG). 17-AAG interacts with the N-terminal region of HSP90 and inhibits its ATPase activity; this disrupts interactions of HSP90 with client proteins and leads to client-protein degradation via the ubiquitin-proteasome pathway (Whitesell, et al. 2005; Neckers, et al. 2007). To examine the expression of some HSP70/HSP90 clients, we used western blot analysis of detergent-soluble (clarified) whole cell extracts.
# Sequence of HSP70 (P0DMV8 2-641): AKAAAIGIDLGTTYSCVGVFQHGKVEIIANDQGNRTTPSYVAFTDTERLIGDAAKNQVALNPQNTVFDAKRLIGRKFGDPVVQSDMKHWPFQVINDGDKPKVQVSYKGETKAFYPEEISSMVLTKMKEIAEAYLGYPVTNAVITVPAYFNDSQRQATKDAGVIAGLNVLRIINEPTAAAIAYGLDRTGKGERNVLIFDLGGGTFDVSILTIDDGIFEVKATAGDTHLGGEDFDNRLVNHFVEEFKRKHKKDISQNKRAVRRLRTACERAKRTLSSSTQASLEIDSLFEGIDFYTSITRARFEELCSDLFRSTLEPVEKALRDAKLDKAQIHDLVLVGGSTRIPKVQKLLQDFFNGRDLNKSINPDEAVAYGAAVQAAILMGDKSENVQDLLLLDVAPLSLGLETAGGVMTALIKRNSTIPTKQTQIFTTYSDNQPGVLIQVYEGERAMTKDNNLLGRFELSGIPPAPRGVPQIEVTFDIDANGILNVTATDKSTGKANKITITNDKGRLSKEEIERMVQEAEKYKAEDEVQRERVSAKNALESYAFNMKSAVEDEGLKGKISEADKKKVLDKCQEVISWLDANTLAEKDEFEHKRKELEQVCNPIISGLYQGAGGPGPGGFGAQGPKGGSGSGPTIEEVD
smiles,measurement,setting,value
"NS(=O)(=O)C#Cc1ccccc1 [PES, 2-Phenylethynesulfonamide]",interaction with HA-tagged HSP70,HSP70,interact with HSP70
same,"EGFR, HER2/ErbB2 and AKT in the detergent-insoluble fraction","EGFR, HER2/ErbB2, AKT; 20 μM, 24 h","increased abundance of EGFR, HER2/ErbB2, and AKT in the detergent-insoluble fraction"
same,expression of integrin β1 and CHIP,"EGFR, HER2/ErbB2, AKT; H1299 cells, 20 μM, 24 h",lower expression levels
same,"overall cellular abundance of EGFR, HER2/ErbB2 and AKT","EGFR, HER2/ErbB2, AKT; SKBR3 cells, detergent-soluble extracts, 24 h",reduction in the overall cellular abundance
same,other cellular proteins in the detergent-insoluble fraction,"EGFR, HER2/ErbB2, AKT; SKBR3 or SKOV3 cells",many of the proteins examined accumulate in the detergent-insoluble fraction
